Reference: EP0872233A1, “Antiretroviral compositions with improved bioavailability” (JANSSEN PHARMACEUTICA N.V., priority 1997, dated 1998)

Assays:
solubility in water = format: physicochemical; details: room temperature, pH of 6.5, racemic free base
[1] = thermal stability at melt-extrusion temperatures; format: physicochemical; details: temperatures up to 300°C
Procedure: One of the most important parameters of melt extrusion is the temperature at which the melt-extruder is operating. […] At temperatures lower than 120°C, loviride will not dissolve sufficiently in most water-soluble polymers and the extrudate will not have the required bioavailability. In addition, the process is difficult because of the high viscosity of the mixture. At temperatures of more than 300°C the water-soluble polymer may decompose to an unacceptable level.

[2] = in vivo
[3] = set-up: AUClast: dose or concentration left out as unconfirmed; details: for Cmax: human, in vivo, po, 100 mg
Procedure: In this study 12 healthy volunteers in fasting conditions were administered a tablet of example 1 (100 mg loviride). Plasma levels of each of the loviride enantiomers were determined and the following bioavailability data were calculated therefrom.

| Compound | solubility (solubility in water) | thermal stability [1] | half-life [2] | AUClast [3] | Cmax [3] |
| --- | --- | --- | --- | --- | --- |
| CC(=O)c1ccc(C)cc1NC(C(N)=O)c1c(Cl)cccc1Cl (racemic) [loviride, (±)-α-[(2-acetyl-5-methylphenyl)amino]-2,6-dichlorobenzeneacetamide] | less than 0.1 mg/100ml | thermally very stable | short |  |  |
| CC(=O)c1ccc(C)cc1NC(C(N)=O)c1c(Cl)cccc1Cl (single isomer, unassigned; (+)) [(+)-loviride] |  |  |  | 18,180 ± 7,197 ng.h/ml | 890 ± 292 ng/mL |
| CC(=O)c1ccc(C)cc1NC(C(N)=O)c1c(Cl)cccc1Cl (single isomer, unassigned; (-)) [(-)-loviride] |  |  |  | 1,347 ± 512 ng.h/ml | 155 ± 66 ng/mL |
